pKi: −log10 of the molar value.
target: human GCGR (Homo sapiens (Human), UniProt P47871); assay: Cellular functional assay, cAMP readout: glucagon stimulated cAMP in HEK293 cells expressing human GCGR (LANCE TR-FRET); assay type: cell-based
Experimental: IC50 Values in Cellular Functional Assays: cAMP Readout
Full-length human GCGR (Accession Number: NM000160) subcloned into pcDNA3.1 was stably transfected into HEK293 cells (hGluc-1 HEK) and maintained under G418 selection (500 μg/mL). Cell cultures were maintained in DMEM/F12 media supplemented with 10% FBS and 1% GlutaMax. Glucagon stimulated cAMP was quantified using LANCE technology as per manufacturer instructions. On the day of the experiment, spent media was removed and cells were washed with Hank's Buffered Saline solution (HBSS) and cells were harvested with non-enzymatic cell dissociation solution, then washed once with HBSS. Cells were re-suspended in stimulation buffer at a concentration of 0.83×10^6 cells/ml and cAMP detection antibody was added. 6 μl/well of this solution was then dispensed in a 384 well plate (cell density 5000 cells/well). Test compound was serially diluted in DMSO and 50 nl were dispensed on top of the cell solution and allowed to incubate for 30 minutes. 6 μl of a 2× glucagon solution (final concentration in assay 100 pM) was then added and the reaction was terminated after 5 minutes with the addition of detection mix. The resulting mixture was incubated, protected from light for 1.5 h. cAMP levels were quantified by TR-FRET in an EnVision instrument against a known standard. IC50's were generated by using a non-linear regression macro driven in Excel and converted to Ki values.

Chain of human GCGR (P47871 26-477): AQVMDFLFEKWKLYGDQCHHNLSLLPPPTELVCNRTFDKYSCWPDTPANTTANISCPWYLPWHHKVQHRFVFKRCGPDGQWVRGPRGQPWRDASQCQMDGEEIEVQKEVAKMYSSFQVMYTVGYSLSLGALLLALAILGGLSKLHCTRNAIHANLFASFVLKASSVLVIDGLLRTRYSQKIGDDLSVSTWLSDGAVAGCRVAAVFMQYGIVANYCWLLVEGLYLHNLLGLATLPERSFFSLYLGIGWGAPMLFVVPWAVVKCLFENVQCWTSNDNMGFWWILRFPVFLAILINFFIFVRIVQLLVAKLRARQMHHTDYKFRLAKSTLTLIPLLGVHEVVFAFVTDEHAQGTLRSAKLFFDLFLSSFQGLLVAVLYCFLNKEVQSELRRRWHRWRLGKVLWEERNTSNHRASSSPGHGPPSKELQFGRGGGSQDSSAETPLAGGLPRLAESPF

Going from `Cc1cc(C(F)(F)F)ccc1-c1ccc(NCc2ccc(C(F)(F)F)cc2-c2ccc(C(=O)NCCC(=O)O)cc2)cc1Cl` [Compound 2, 3-(2′-(((2-chloro-2′-methyl-4′-(trifluoromethyl)-[1,1′-biphenyl]-4-yl)amino)methyl)-5′-(trifluoromethyl)-[1,1′-biphenyl]-4-ylcarboxamido)propanoic acid] to `O=C(O)CCNC(=O)c1ccc(-c2cc(C(F)(F)F)ccc2CNc2ccc(-c3ccc(C(F)(F)F)cc3Cl)c(Cl)c2)cc1` [Compound 3, 3-(2′-(((2,2′-dichloro-4′-(trifluoromethyl)-[1,1′-biphenyl]-4-yl)amino)methyl)-5′-(trifluoromethyl)-[1,1′-biphenyl]-4-ylcarboxamido)propanoic acid], the pKi falls from 7.38 to 7.17 (0.21 log units).

First: O=C(O)CCNC(=O)c1ccc(-c2cc(C(F)(F)F)ccc2CNc2ccc(-c3ccc(Cl)cc3Cl)cc2)cc1 [Compound 4, 3-(2′-(((2′,4′-dichloro-[1,1′-biphenyl]-4-yl)amino)methyl)-5′-(trifluoromethyl)-[1,1′-biphenyl]-4-ylcarboxamido)propanoic acid]
Second: Cc1cc(Cl)ccc1-c1ccc(NCc2ccc(C(F)(F)F)cc2-c2ccc(C(=O)NCCC(=O)O)cc2)cc1Cl [Compound 1, 3-(2′-(((2,4′-dichloro-2′-methyl-[1,1′-biphenyl]-4-yl)amino)methyl)-5′-(trifluoromethyl)-[1,1′-biphenyl]-4-ylcarboxamido)propanoic acid]
The pKi of the first is 0.42 log units lower: 6.82 for the first, 7.24 for the second. The second binds more tightly here.

`Cc1cc(Cl)ccc1-c1ccc(NCc2ccc(C(F)(F)F)cc2-c2ccc(C(=O)NCCC(=O)O)cc2C)cc1Cl` [Compound 5, 3-(2′-(((2,4′-dichloro-2′-methyl-[1,1′-biphenyl]-4-yl)amino)methyl)-2-methyl-5′-(trifluoromethyl)-[1,1′-biphenyl]-4-ylcarboxamido)propanoic acid] and `Cc1cc(C(F)(F)F)ccc1-c1ccc(NCc2ccc(C(F)(F)F)cc2-c2ccc(C(=O)NCCC(=O)O)cc2C)cc1Cl` [Compound 6, 3-(2′-(((2-chloro-2′-methyl-4′-(trifluoromethyl)-[1,1′-biphenyl]-4-yl)amino)methyl)-2-methyl-5′-(trifluoromethyl)-[1,1′-biphenyl]-4-ylcarboxamido)propanoic acid] are within 0.2 log units of each other in pKi: 7.05 for the first, 7.15 for the second.

`COc1cc(C(F)(F)F)cc(-c2ccc(C(=O)NCCC(=O)O)cc2)c1CNc1ccc(-c2ccc(Cl)cc2)c(Cl)c1` [Compound 15, 3-(2′-(((2,4′-dichloro-[1,1′-biphenyl]-4-yl)amino)methyl)-3′-methoxy-5′-(trifluoromethyl)-[1,1′-biphenyl]-4-ylcarboxamido)propanoic acid] and `COc1cc(C(F)(F)F)cc(-c2ccc(C(=O)NCCC(=O)O)cc2)c1CNc1ccc(-c2ccc(C(F)(F)F)cc2Cl)cc1` [Compound 16, 3-(2′-(((2′-chloro-4′-(trifluoromethyl)-[1,1′-biphenyl]-4-yl)amino)methyl)-3′-methoxy-5′-(trifluoromethyl)-[1,1′-biphenyl]-4-ylcarboxamido)propanoic acid] are within 0.2 log units of each other in pKi: 7.24 for the first, 7.33 for the second.

`Cc1cc(C(F)(F)F)ccc1-c1ccc(NCc2c(-c3ccc(C(=O)NCCC(=O)O)cc3)cc(C(F)(F)F)cc2C(C)C)cc1Cl` [Compound 17, 3-(2′-(((2-chloro-2′-methyl-4′-(trifluoromethyl)-[1,1′-biphenyl]-4-yl)amino)methyl)-3′-isopropyl-5′-(trifluoromethyl)-[1,1′-biphenyl]-4-ylcarboxamido)propanoic acid] gave a pKi of 7.52.

Reference: patent US9045389B2, “Biphenyl derivatives useful as glucagon receptor antagonists” (Janssen Pharmaceutica NV, priority 2011, dated 2015)
